Data as given in patent US10131652B2, “Pyrimidinyloxy benzene derivatives as herbicides” (E. I. DU PONT DE NEMOURS AND COMPANY, priority 2014, dated 2018).
Where two headings read alike, the source gives them in different places.

Tests used:
Type in all cases: in vivo
[1] = test system: giant foxtail (Setaria faberii); assay: Test B pre-/postemergence plant response; settings: for pest or weed control at 500 g/ha: 500 g ai/ha
Method in brief: (§1)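 Steps: plant seeds in loam soil–sand mix; spray soil preemergence, and in parallel spray 2–10 cm one- to two-leaf plants postemergence; hold ~10 days in greenhouse; visually rate injury against untreated controls (0 = no effect, 100 = complete control).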

[2] = test system: wheat (Triticum aestivum); assay: Test B pre-/postemergence plant response; settings: Triticum aestivum, post-emergence, 240 h, read-out: Plant response rating, Wheat
Method in brief: as §1

corn (Zea mays) = assay: Test B pre-/postemergence plant response; settings: Zea mays, post-emergence, 240 h
Method in brief: as §1

[3] = test system: pigweed (Amaranthus retroflexus); assay: Test B pre-/postemergence plant response; settings: for pest or weed control at 500 g/ha: 500 g ai/ha
Method in brief: as §1

[4] = test system: barnyardgrass (Echinochloa crus-galli); assay: Test B pre-/postemergence plant response; settings: for pest or weed control at 500 g/ha: 500 g ai/ha
Method in brief: as §1

[5] = test system: large (Lg) crabgrass (Digitaria sanguinalis); assay: Test D pre-/postemergence plant response; settings: Digitaria sanguinalis; for pest or weed control at 16 g/ha: 16 g ai/ha; for pest or weed control at 31 g/ha: 31 g ai/ha; for pest or weed control at 62 g/ha: 62 g ai/ha; for pest or weed control at 125 g/ha: 125 g ai/ha
Method in brief: (§2)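 0 = no effect, 100 = complete control: plants were scored this way by visual comparison with controls 13 to 15 days post-treatment. Application was preemergence to sown loam/sand pots or postemergence to 2–18 cm seedlings in peat-based mix.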

[6] = test system: yellow nutsedge (Cyperus esculentus); assay: Test D pre-/postemergence plant response; settings: Cyperus; for pest or weed control at 31 g/ha: 31 g ai/ha; for pest or weed control at 62 g/ha: 62 g ai/ha; for pest or weed control at 125 g/ha: 125 g ai/ha
Method in brief: as §2

[7] = test system: winter wheat (Triticum aestivum); assay: Test D pre-/postemergence plant response; settings: Triticum aestivum; for plant injury at 31 g/ha: 31 g ai/ha; for plant injury at 62 g/ha: 62 g ai/ha; for plant injury at 125 g/ha: 125 g ai/ha
Method in brief: as §2

soybean (Glycine max) = assay: Test D pre-/postemergence plant response; settings: Glycine max; for plant injury at 31 g/ha: 31 g ai/ha; for plant injury at 62 g/ha: 62 g ai/ha; for plant injury at 125 g/ha: 125 g ai/ha
Method in brief: as §2

[8] = test system: ragweed (common ragweed, Ambrosia elatior); assay: Test D pre-/postemergence plant response; settings: Ambrosia artemisiifolia, post-emergence, Postemergence
Method in brief: as §2

[9] = Preemergence, 125 g ai/ha, 0 to 100 scale (0 no effect, 100 complete control)
[10] = 125 g ai/ha, postemergence, 0 to 100 scale, 0 no effect, 100 complete control
[11] = Postemergence, 500 g ai/ha, 0 to 100 scale (0 no effect, 100 complete control)
[12] = post-emergence, Postemergence, scale 0 to 100 (0 no effect, 100 complete control), read-out: Crabgrass, Large plant response rating
[13] = post-emergence, Postemergence, scale 0 to 100, 0 no effect, 100 complete control, read-out: Plant response rating, Crabgrass, Large
[14] = pre-emergence, Preemergence, scale 0 to 100 (0 no effect, 100 complete control), read-out: Plant response rating, Crabgrass, Large
[15] = post-emergence, Postemergence, scale 0 to 100, 0 no effect, 100 complete control, read-out: Plant response rating, Nutsedge, Yellow
[16] = pre-emergence, Preemergence, scale 0 to 100 (0 no effect, 100 complete control), read-out: Plant response rating, Nutsedge, Yellow
[17] = post-emergence, Postemergence, scale 0 to 100, 0 no effect, 100 complete control, read-out: Plant response rating, Wheat
[18] = pre-emergence, Preemergence, scale 0 to 100 (0 no effect, 100 complete control), read-out: Plant response rating, Wheat
[19] = post-emergence, Postemergence, scale 0 to 100, 0 no effect, 100 complete control, read-out: Plant response rating, Soybean
[20] = pre-emergence, Preemergence, scale 0 to 100 (0 no effect, 100 complete control), read-out: Plant response rating, Soybean

Fc1cccc(Oc2ncc(Cl)cn2)c1-c1cc(C(F)(F)F)on1 [Compound 168, 5-chloro-2-[2-[5-(trifluoromethyl)-3-isoxazolyl]-3-fluorophenoxy]pyrimidine] was tested, and the “Foxtail, Giant plant response rating” value [1, 9] was 100, the pest or weed control at 125 g/ha ([1]; Setaria faberi, post-emergence, 240 h, 125 g ai/ha, postemergence, 0 to 100 scale, 0 no effect, 100 complete control, read-out: Plant response rating, Foxtail, Giant) was 100% and the pest or weed control at 500 g/ha ([1]; Setaria faberi, post-emergence, 240 h, Postemergence, 0 to 100 scale (0 no effect, 100 complete control), read-out: Plant response rating, Foxtail, Giant) was 100%. The pest or weed control at 500 g/ha ([1]; Setaria faberi, pre-emergence, 240 h, Preemergence, 0 to 100 scale where 0 is no effect and 100 is complete control, read-out: Plant response rating, Foxtail, Giant) was 100%, the plant injury at 125 g/ha [2, 10] was 100% and the plant injury at 500 g/ha [2, 11] was 100%. The Corn plant response rating (crop injury, 0 = no effect, 100 = complete kill) at 125 g/ha (corn (Zea mays); [10]) was 100%, the Corn plant response rating (crop injury, 0 = no effect, 100 = complete kill) at 500 g/ha (corn (Zea mays); [11]) was 100% and the pest or weed control at 125 g/ha ([3]; Amaranthus retroflexus, post-emergence, 240 h, 125 g ai/ha, postemergence, 0 to 100 scale, 0 no effect, 100 complete control, read-out: Plant response rating, Pigweed) was 100%. For the same molecule, the pest or weed control at 500 g/ha ([3]; Amaranthus retroflexus, post-emergence, 240 h, Postemergence, 0 to 100 scale (0 no effect, 100 complete control), read-out: Plant response rating, Pigweed) was 100%, the pest or weed control at 500 g/ha ([3]; Amaranthus retroflexus, pre-emergence, 240 h, Preemergence, 0 to 100 scale where 0 is no effect and 100 is complete control, read-out: Plant response rating, Pigweed) was 100% and the “Pigweed plant response rating” value [3, 9] was 100. It also gave a pest or weed control at 125 g/ha ([4]; Echinochloa crus-galli, post-emergence, 240 h, 125 g ai/ha, postemergence, 0 to 100 scale, 0 no effect, 100 complete control, read-out: Plant response rating, Barnyardgrass) of 100%, a pest or weed control at 500 g/ha ([4]; Echinochloa crus-galli, post-emergence, 240 h, Postemergence, 0 to 100 scale (0 no effect, 100 complete control), read-out: Plant response rating, Barnyardgrass) of 100% and a pest or weed control at 500 g/ha ([4]; Echinochloa crus-galli, pre-emergence, 240 h, Preemergence, 0 to 100 scale where 0 is no effect and 100 is complete control, read-out: Plant response rating, Barnyardgrass) of 100%. For the same molecule, the “Barnyardgrass plant response rating” value [4, 9] was 100, the pest or weed control at 16 g/ha [5, 12] was 5% and the pest or weed control at 31 g/ha [5, 12] was 5%. The pest or weed control at 62 g/ha [5, 13] was 15%, the pest or weed control at 125 g/ha [5, 13] was 40% and the pest or weed control at 125 g/ha ([5]; pre-emergence, Preemergence, read-out: Plant response rating (scale 0 to 100), Crabgrass, Large) was 100%. It also gave a pest or weed control at 16 g/ha [5, 14] of 100%, a pest or weed control at 31 g/ha [5, 14] of 100% and a pest or weed control at 62 g/ha [5, 14] of 100%. For the same molecule, the pest or weed control at 31 g/ha ([6]; post-emergence, Postemergence, scale 0 to 100 (0 no effect, 100 complete control), read-out: Nutsedge, Yellow plant response rating) was 5%, the pest or weed control at 62 g/ha [6, 15] was 10% and the pest or weed control at 125 g/ha [6, 15] was 15%. For the same molecule, the pest or weed control at 125 g/ha ([6]; pre-emergence, Preemergence, read-out: Plant response rating (scale 0 to 100), Nutsedge, Yellow) was 45%, the pest or weed control at 16 g/ha ([6]; pre-emergence, Preemergence, 16 g ai/ha, scale 0 to 100 (0 no effect, 100 complete control), read-out: Plant response rating, Nutsedge, Yellow) was 5% and the pest or weed control at 31 g/ha [6, 16] was 5%. The pest or weed control at 62 g/ha [6, 16] was 15%, the plant injury at 31 g/ha ([7]; post-emergence, Postemergence, scale 0 to 100 (0 no effect, 100 complete control), read-out: Wheat plant response rating) was 10% and the plant injury at 62 g/ha [7, 17] was 30%. The plant injury at 125 g/ha [7, 17] was 35%, the plant injury at 125 g/ha ([7]; pre-emergence, Preemergence, read-out: Plant response rating (scale 0 to 100), Wheat) was 85% and the plant injury at 16 g/ha ([7]; pre-emergence, Preemergence, 16 g ai/ha, scale 0 to 100 (0 no effect, 100 complete control), read-out: Plant response rating, Wheat) was 0%. It also gave a plant injury at 31 g/ha [7, 18] of 5%, a plant injury at 62 g/ha [7, 18] of 45% and a plant injury at 31 g/ha (soybean (Glycine max); post-emergence, Postemergence, scale 0 to 100 (0 no effect, 100 complete control), read-out: Soybean plant response rating) of 75%. The plant injury at 62 g/ha (soybean (Glycine max); [19]) was 40%, the plant injury at 125 g/ha (soybean (Glycine max); [19]) was 90% and the plant injury at 125 g/ha (soybean (Glycine max); pre-emergence, Preemergence, read-out: Plant response rating (scale 0 to 100), Soybean) was 85%. It also gave a plant injury at 16 g/ha (soybean (Glycine max); pre-emergence, Preemergence, 16 g ai/ha, scale 0 to 100 (0 no effect, 100 complete control), read-out: Plant response rating, Soybean) of 5%, a plant injury at 31 g/ha (soybean (Glycine max); [20]) of 30% and a plant injury at 62 g/ha (soybean (Glycine max); [20]) of 55%. The pest or weed control at 31 g/ha ([8]; 31 g ai/ha, scale 0 to 100 (0 no effect, 100 complete control), read-out: Ragweed plant response rating) was 50% and the pest or weed control at 62 g/ha ([8]; 62 g ai/ha, scale 0 to 100, 0 no effect, 100 complete control, read-out: Plant response rating, Ragweed) was 55%.
